These results are taken from patent US5939448A, “Triazole derivative or salt thereof” (SS Pharmaceutical Co., Ltd., priority 1996, dated 1999).

Assay [1] has as its system C. albicans IFM 40009. Nature of the assay: Test 4: In vivo antifungal activity against Candida albicans (survival of infected mice). Also on record: species or system Candida albicans; male ICR (CRJ: CD-1) mouse. Particulars: oral 1.25 mg/kg each, four times in total; for Mean survival days: 14 days after infection, vs. control ***: p < 0.001, **: p < 0.01; for Survival mice on 14-th day: survivors/mice of group. On the procedure: Test 4: In vivo antifungal activity against Candida albicans
After 4-week-old, male, ICR (CRJ: CD-1) mouse was fasted for 6 hours, C. albicans IFM 40009 was inoculated to a tail vein of the mouse to give an amount of 3.0×10^6 cells/mouse, whereby infection was caused. A control group consisted of 8 mice, while a chemical-administered group consisted of 5 mice. The chemical was orally administered once an hour after the inoculation of the fungus and 24 hours after the inoculation, and once a day consecutively, four times in total, at 1.25 mg/kg each. The survival during 14 days after the infection was counted. In addition, the mean survival days of the control group and the mean survival days of the chemical-administered group were compared and statistically analyzed by the Kaplan-Meire method (Cox mantel test).

Assay [2] has as its system A. flavus IFM 41935. Nature of the assay: Test 3: In vitro antifungal activity against Aspergillus flavus (MIC). The format is cell-based. The note with it: IFM41935, RPMI 1640 with 0.165M MOPS, pH 7, 35° C., 24 hours. The method, then: Test 3: In vitro antifungal activity against Aspergillus flavus
(§1) They were incubated at 35° C. for 24 hours.

The test system of assay [3] is A. fumigatus IFM 40808. Nature of the assay: Test 2: In vitro antifungal activity against Aspergillus fumigatus (MIC). The class given is cell-based. Particulars: IFM40808, RPMI 1640 with 0.165M MOPS, pH 7, 35° C., 24 hours. The method, then: Test 2: In vitro antifungal activity against Aspergillus fumigatus
as §1

Assay [4] has as its system C. albicans ATCC 44859. As to the kind of experiment: Test 1: In vitro antifungal activity against Candida albicans (suppression of mycelial type growth). The class given is cell-based. The note with it: ATCC44859, minimum concentration permitting apparent suppression of mycerial type growth, 10% fetal bovine serum added MEM, 37° C., 20 hours, read-out: Terminal Point C. albicans. On the procedure:
Test 1: In vitro antifungal activity against Candida albicans
They were incubated at 37° C. for 20 hours in a CO2 gas incubator. After incubation, morphological change of C. albicans was observed under an inverted microscope.

≈ marks a conversion by molar mass, not a printed value.

In the case of `O=S(=O)(CCO)C(F)(F)C(O)(Cn1cncn1)c1ccc(F)cc1F` (stereo not drawn) [Example 20, 2-(2,4-difluorophenyl)-1,1-difluoro-1-(2-hydroxyethyl)sulfonyl-3-(1H-1,2,4-triazol-1-yl)propan-2-ol], in assay [1], the Mean survival days amounted to 14.0 days and the “Survival mice on 14-th day” value is recorded as 5/5.
Consider `COCCS(=O)(=O)C(F)(F)C(O)(Cn1cncn1)c1ccc(F)cc1F` (stereo not drawn) [Example 21, 2-(2,4-difluorophenyl)-1,1-difluoro-1-(2-methoxyethyl)sulfonyl-3-(1H-1,2,4-triazol-1-yl)propan-2-ol], for which, in assay [1], the Mean survival days turned out to be 14.0 days. In addition, the “Survival mice on 14-th day” value in assay [1] is 4/5. Further, the figures for the MIC in assay [2], in assay [3] and in assay [4] were 32 µg/mL (≈ 80.5 µM), 16 µg/mL (≈ 40.3 µM) and 0.0625 µg/mL (≈ 0.157 µM), respectively.
The matching figures for `OC(Cn1cncn1)(Cn1cncn1)c1ccc(F)cc1F` [Fluconazole, reference compound]: 9.6 days, 0/5, over 128 µg/mL, over 128 µg/mL and 0.25 µg/mL (≈ 0.816 µM).
On to `CC(=O)OCCSC(F)(F)C(O)(Cn1cncn1)c1ccc(F)cc1F` (stereo not drawn) [Example 14, 1-(2-acetoxyethyl)thio-2-(2,4-difluorophenyl)-1,1-difluoro-3-(1H-1,2,4-triazol-1-yl)propan-2-ol], for which the MIC in assay [2] came to 4 µg/mL (≈ 10.2 µM); in assay [3] it was 8 µg/mL (≈ 20.3 µM); in assay [4] it was 0.0313 µg/mL (≈ 0.0796 µM).
Consider `COCCSC(F)(F)C(O)(Cn1cncn1)c1ccc(F)cc1F` (stereo not drawn) [Example 15, 2-(2,4-difluorophenyl)-1,1-difluoro-1-(2-methoxyethyl)thio-3-(1H-1,2,4-triazol-1-yl)propan-2-ol], for which the results for the MIC in assay [2], in assay [3] and in assay [4] were 8 µg/mL (≈ 21.9 µM), 4 µg/mL (≈ 10.9 µM) and 0.0156 µg/mL (≈ 0.0427 µM), respectively.
For `OCCSC(F)(F)C(O)(Cn1cncn1)c1ccc(F)cc1F` (stereo not drawn) [Example 18, 2-(2,4-difluorophenyl)-1,1-difluoro-1-(2-hydroxyethyl)thio-3-(1H-1,2,4-triazol-1-yl)propan-2-ol] the same measures were 64 µg/mL (≈ 182 µM), 64 µg/mL (≈ 182 µM) and 0.25 µg/mL (≈ 0.712 µM).
